# Legend:
# [1] = Cmax in beagle dog at 5 mg/kg, iv administered for 30 mins; type: ADME, organism-based, Canis lupus familiaris; parameters: dose 5 mg/kg, dosed compound name [14C]LY2090314, route intravenous; conditions: in vivo
# Rattus norvegicus [2] = test: Cmax in Sprague-Dawley rat assessed as total radioactivity at 5 mg/kg, iv administered for 30 mins; type: ADME, organism-based; parameters: dose 5 mg/kg, dosed compound name [14C]LY2090314, route intravenous; conditions: in vivo, 0.5 h
# Rattus norvegicus [3] = test: Clearance in Sprague-Dawley rat assessed as total radioactivity at 5 mg/kg, iv administered for 30 mins; type: ADME, organism-based; parameters: dose 5 mg/kg, dosed compound name [14C]LY2090314, route intravenous; conditions: in vivo, 0.5 h
# [4] = AUC (0 to infinity) in Sprague-Dawley rat at 5 mg/kg, iv administered for 30 mins; type: ADME, organism-based; parameters: time infinity, dose 5 mg/kg, dosed compound name [14C]LY2090314, route intravenous; conditions: plasma
# [5] = Half life in cancer patient at 80 mg for 60 mins treated 1/1 cycle/day; type: ADME, organism-based; parameters: dosed compound name LY2090314; conditions: human, in vivo
# [6] = Volume of distribution at steady state in cancer patient at 120 mg for 60 mins treated 1/1 cycle/day; type: ADME, organism-based; parameters: dosed compound name LY2090314; conditions: human, in vivo, read-out: Vdss
# [7] = Clearance in cancer patient at 60 mg for 60 mins treated 1/1 cycle/day; type: ADME, organism-based; parameters: dosed compound name LY2090314; conditions: human, in vivo
# [8] = Drug recovery in bile duct-cannulated Sprague-Dawley rat assessed as radioactivity in bile during 0 to 12 hrs at 5 mg/kg, iv administered for 30 mins relative to dosed radioactivity; type: ADME, organism-based; parameters: dose 5 mg/kg, dosed compound name [14C]LY2090314, route intravenous; conditions: in vivo
# [9] = Tmax in cancer patient at 40 mg for 60 mins treated 1/8 cycle/day; type: ADME, organism-based; parameters: dosed compound name LY2090314; conditions: human, in vivo
# [10] = Tmax in cancer patient at 120 mg for 60 mins treated 1/1 cycle/day; type: ADME, organism-based; parameters: dosed compound name LY2090314; conditions: human, in vivo
# [11] = Drug recovery in beagle dog urine at 5 mg/kg, iv administered for 30 mins during 0 to 168 hrs time interval by radio analysis; type: ADME, organism-based, Canis lupus familiaris; parameters: dose 5 mg/kg, dosed compound name [14C]LY2090314, route intravenous; conditions: in vivo
# Canis familiaris = test: Volume of distribution at steady state in beagle dog assessed as total radioactivity at 5 mg/kg, iv administered for 30 mins; type: ADME, organism-based, Canis lupus familiaris; parameters: dose 5 mg/kg, dosed compound name [14C]LY2090314, route intravenous; conditions: in vivo, 0.5 h
# [12] = Drug recovery in bile duct-cannulated Sprague-Dawley rat assessed as radioactivity in feces during 0 to 24 hrs at 5 mg/kg, iv administered for 30 mins relative to dosed radioactivity; type: ADME, organism-based; parameters: dose 5 mg/kg, dosed compound name [14C]LY2090314, route intravenous; conditions: in vivo
# Rattus norvegicus [13] = test: Tmax in Sprague-Dawley rat assessed as total radioactivity at 5 mg/kg, iv administered for 30 mins; type: ADME, organism-based; parameters: dose 5 mg/kg, dosed compound name [14C]LY2090314, route intravenous; conditions: in vivo, 0.5 h
# [14] = Drug uptake in beagle […] blood at 5 mg/kg, iv administered for 30 mins; type: ADME, organism-based, Canis lupus familiaris; parameters: dose 5 mg/kg, dosed compound name [14C]LY2090314, route intravenous; conditions: in vivo, 0.5 h
# Rattus norvegicus [15] = test: AUC (0 to infinity) in Sprague-Dawley rat assessed as total radioactivity at 5 mg/kg, iv administered for 30 mins; type: ADME, organism-based, Plasma; parameters: dose 5 mg/kg, dosed compound name [14C]LY2090314, route intravenous, time infinity; conditions: in vivo, 0.5 h
# [16] = Drug metabolism in Bcrp knockout Sprague-Dawley rat urine at 5 mg/kg, iv administered for 30 mins; type: ADME, organism-based; parameters: dose 5 mg/kg, dosed compound name LY2090314, route intravenous; conditions: in vivo, 0.5 h
# [17] = AUC (0 to infinity) in cancer patient at 20 mg for 60 mins treated 1/1 cycle/day; type: ADME, organism-based; parameters: dose 20 mg, time infinity, dosed compound name LY2090314; conditions: human, plasma
# [18] = AUC (0 to infinity) in cancer patient at 40 mg for 60 mins treated 1/8 cycle/day; type: ADME, organism-based; parameters: dose 40 mg, time infinity, dosed compound name LY2090314; conditions: human, plasma
# [19] = Volume of distribution at steady state in cancer patient at 80 mg for 60 mins treated 1/8 cycle/day; type: ADME, organism-based; parameters: dosed compound name LY2090314; conditions: human, in vivo, read-out: Vdss
# [20] = Drug recovery in beagle dog feces at 5 mg/kg, iv administered for 30 mins during 0 to 24 hrs time interval by radio analysis; type: ADME, organism-based, Canis lupus familiaris; parameters: dose 5 mg/kg, dosed compound name [14C]LY2090314, route intravenous; conditions: in vivo
# Plasma [21] = test: Drug metabolism in Mrp2 knockout Sprague-Dawley rat plasma at 5 mg/kg, iv administered for 30 mins; type: ADME, organism-based; parameters: dose 5 mg/kg, dosed compound name LY2090314, route intravenous; conditions: in vivo, 0.5 h
# [22] = Half life in cancer patient at 120 mg for 60 mins treated 1/1 cycle/day; type: ADME, organism-based; parameters: dosed compound name LY2090314; conditions: human, in vivo
# [23] = Half life in cancer patient at 10 mg for 60 mins treated 2/1 cycle/day; type: ADME, organism-based; parameters: dosed compound name LY2090314; conditions: human, in vivo
# [24] = Drug recovery in bile duct-cannulated Sprague-Dawley rat assessed as radioactivity in bile during 0 to 12 hrs at 5 mg/kg, iv for 30 mins; type: ADME, organism-based; parameters: dose 5 mg/kg, dosed compound name [14C]LY2090314, route intravenous; conditions: in vivo
# Plasma [25] = test: Drug metabolism in Bcrp knockout Sprague-Dawley rat plasma at 5 mg/kg, iv administered for 30 mins; type: ADME, organism-based; parameters: dose 5 mg/kg, dosed compound name LY2090314, route intravenous; conditions: in vivo, 0.5 h
smiles,measurement,setting,value
O=C1NC(=O)C(c2cnc3ccccn23)=C1c1cn2c3c(cc(F)cc13)CN(C(=O)N1CCCCC1)CC2 [LY-2090314],Cmax,[1],5090 ng/mL
same,Cmax,Rattus norvegicus [2],2080 ng/mL
same,CL,Rattus norvegicus [3],2430 mL/h/kg
same,AUC(0-inf),[4],1260 ng·h/mL
same,half-life,[5],154 min
same,Vd,[6],82.1 L
same,clearance,[7],617 mL/min
same,Radiolabel recovery,[8],85.2%
same,Tmax,[9],1 h
same,Tmax,[10],58.8 min
same,Radiolabel recovery,[11],20.6%
same,Vdss,Canis familiaris,9840 mL/kg
same,Radiolabel recovery,[12],6.75%
same,Tmax,Rattus norvegicus [13],30 min
same,Compound recovery,[14],25.5%
same,AUC,Rattus norvegicus [15],1790 ng·h/mL
same,Drug metabolism,[16],metabolite_detected
same,AUC(0-inf),[17],427 ng·h/mL
same,AUC(0-inf),[18],938 ng·h/mL
same,Vd,[19],66 L
same,Radiolabel recovery,[20],39.8%
same,Drug metabolism,Plasma [21],metabolite_not_detected
same,half-life,[22],178 min
same,half-life,[23],146 min
same,Radiolabel recovery,[24],1.78%
same,Drug metabolism,Plasma [25],metabolite_not_detected
